{
  "source": "patent EP0612730A1",
  "about": "“O-aryl ethers of morphinans” (F. HOFFMANN-LA ROCHE AG, priority 1993, dated 1994)",
  "note": "Structures can show the parent of a compound that is named as a salt.",
  "data": [
    {"tested_on": "NMDA receptor", "assay": "NMDA-induced convulsions in mice (NMDA-induced anticonvulsant test)", "assay_type": "in vivo", "details": "NMDA 175 mg/kg i.p. 30 min after i.p. test compound (60 min after oral), percent protection = 100 (E-C)/(10-C), dose and route of test compound not given", "excerpt": "As indicated above, the compounds of formula I are active as non-competitive NMDA receptor antagonists and are therefore, useful as neuroprotecting agents, for example, in the treatment of injury to central neurons associated with ischemia, hypoxia, hypoglycemia, epilepsy, Huntington's disease or Alzheimer's disease.\n1. NMDA-Induced convulsions in mice\nMale mice 45-54 days old and weighing 18-30 g are food-deprived for 24 hrs and then assigned in groups of 10 to various treatment conditions. In general, the method of Lehmann et al. described in J. Pharmacol. Exp. Ther. 240, 1987, 737-746, is used. Mice are administered a test compound intraperitoneally and are injected with NMDA (175 mg/kg i.p.) 30 minutes later. If any test compound is administered orally, the NMDA is injected 60 minutes later. NMDA is dissolved in 0.9% saline. Test compounds are likewise dissolved in 0.9% saline or, when necessary, suspended in 5% gum acacia. All injections are made in a volume of 0.2 ml/20 g body weight. […] Results are represented as the number of mice protected at each dose level of a test compound; this gives an indication of the degree of protection at each dose and indicates whether there was a dose level at which complete protection occurred. A formula is used which adjusts for the number of mice \"protected\" in the control group, since the dose of NMDA used induces convulsions in less than 100 percent of the mice in the control group. The formula used is: percent protection = 100 (E-C)/(10-C), where E is the number of mice protected at the dose of the test compound, C is the number of mice not convulsing in the vehicle control group, and 10 is the number of mice per group. A given dose level of a compound is regarded as being active if this percent protection score is equal to or greater than 50 percent.", "units": {"% mice protected": "%"}, "values": [
      {"smiles": "CC(C)(CO)N1CC[C@]23CCCC[C@H]2[C@H]1Cc1ccc(Oc2ccccn2)cc13", "note": "[Example 18, (+)-β,β-dimethyl-3-(2-pyridinyloxy)morphinan-17-ethanol]", "% mice protected": 50},
      {"smiles": "CN1CC[C@@]23CCCC[C@@H]2[C@@H]1Cc1ccc(Oc2nccs2)cc13", "note": "[Fumarate (the 1st table, row 4)]", "% mice protected": 86},
      {"smiles": "CN1CC[C@@]23CCCC[C@@H]2[C@@H]1Cc1ccc(Oc2cccc(Br)n2)cc13", "note": "[Fumarate (the 1st table, row 6)]", "% mice protected": 67},
      {"smiles": "CN1CC[C@@]23CCCC[C@@H]2[C@@H]1Cc1ccc(Oc2ccccn2)cc13", "note": "[Oxalate]", "% mice protected": 86}
    ]},
    {"tested_on": "cell suspensions prepared from embryonic rat cortices", "assay": "Acute glutamate neurotoxicity in cortical cell cultures (lactate dehydrogenase release)", "assay_type": "cell-based", "details": "embryonic rat cortical cultures 8-12 days in vitro, glutamate for 5 to 30 min at room temperature, LDH in supernatant after overnight at 37°C", "procedure": "2. Acute glutamate neurotoxicity\nSingle cell suspensions were prepared from embryonic rat cortices by digestion with dispase (2.4 U/ml) and subsequent trituration with fire polished Pasteur pipettes. The cells were then plated on poly-D-lysine coated microtiter plates (96 well/plate, 10⁵ cells/well) in a total volume of 100 µl essential medium supplemented with 10% horse serum and penicillin/streptomycin . Five days later, non-neuronal cell division was halted by exposure to […] combined with a 50% exchange of culture medium. The cultures were used for neurotoxicity assays from 8-12 days in vitro. Acute glutamate toxicity was performed as described in J. Koh et al. in Neurosci. 8, 1988, 185-196, in […] of a control salt solution [CSS: 120 mM NaCl, 5.4 mM KCl, 0.8 mm MgCl₂, 1.8 mM CaCl₂, 25 mM Tris HCl (pH 7.4 at 25°C) and 15 mM glycose] with […] glutamate for 5 to 30 min at room temperature with or without addition of substances to be tested.After washing, the cultures were maintained in 100 µl CSS overnight at 37°C. For quantitation of neurodegeneration, lactate dehydrogenase was measured in the cell culture supernatant as described by J.G. Klingman et al. in Neurosci. Meth. 31, 1990, 47-51. […] From dose response curves, IC₅₀ values were calculated.", "units": {"IC50": "µM"}, "values": [
      {"smiles": "CN1CC[C@@]23CCCC[C@@H]2[C@@H]1Cc1ccc(Oc2ncccc2N)cc13", "note": "[2 HCl]", "IC50": 14},
      {"smiles": "CN1CC[C@]23CCCC[C@H]2[C@H]1Cc1ccc(Oc2ccccn2)cc13", "note": "[Example 2, (+)-3-(2-pyridyloxy)-N-methyl-morphinan]", "IC50": 4},
      {"smiles": "CC(C)(CO)N1CC[C@]23CCCC[C@H]2[C@H]1Cc1ccc(Oc2ccccn2)cc13", "note": "[Example 18, (+)-β,β-dimethyl-3-(2-pyridinyloxy)morphinan-17-ethanol]", "IC50": 14},
      {"smiles": "Cc1cccc(Oc2ccc3c(c2)[C@@]24CCCC[C@H]2[C@@H](C3)NCC4)n1", "note": "[Example 22, (+)-3-[6-methyl-(2-pyridinyl)oxy] morphinan]", "IC50": "1 to 2"},
      {"smiles": "CN1CC[C@@]23CCCC[C@@H]2[C@@H]1Cc1ccc(Oc2cccc(Br)n2)cc13", "note": "[Fumarate (the 3rd table, row 5)]", "IC50": "1 to 2"},
      {"smiles": "CN1CC[C@@]23CCCC[C@@H]2[C@@H]1Cc1ccc(Oc2nccs2)cc13", "note": "[Fumarate (the 3rd table, row 10)]", "IC50": 5},
      {"smiles": "CN1CC[C@@]23CCCC[C@@H]2[C@@H]1Cc1ccc(Oc2cccnc2)cc13", "note": "[Fumarate]", "IC50": 6.4},
      {"smiles": "CN1CC[C@@]23CCCC[C@@H]2[C@@H]1Cc1ccc(Oc2cccs2)cc13", "note": "[Fumarate]", "IC50": 13},
      {"smiles": "CN1CC[C@@]23CCCC[C@@H]2[C@@H]1Cc1ccc(Oc2ncccc2[N+](=O)[O-])cc13", "note": "[Fumarate]", "IC50": 5},
      {"smiles": "CN1CC[C@@]23CCCC[C@@H]2[C@@H]1Cc1ccc(Oc2ncccn2)cc13", "note": "[Fumarate]", "IC50": 4},
      {"smiles": "Cc1cccc(Oc2ccc3c(c2)[C@]24CCCC[C@@H]2[C@H](C3)N(C)CC4)n1", "note": "[Fumarate]", "IC50": 0.2},
      {"smiles": "O=[N+]([O-])c1cccnc1Oc1ccc2c(c1)[C@]13CCCC[C@@H]1[C@H](C2)NCC3", "note": "[HCl]", "IC50": 0.5},
      {"smiles": "c1ccc(Oc2ccc3c(c2)[C@]24CCCC[C@@H]2[C@H](C3)NCC4)cc1", "note": "[HCl]", "IC50": 1},
      {"smiles": "c1ccc(Oc2ccc3c(c2)[C@]24CCCC[C@@H]2[C@H](C3)NCC4)nc1", "note": "[Maleate]", "IC50": 6},
      {"smiles": "c1csc(Oc2ccc3c(c2)[C@]24CCCC[C@@H]2[C@H](C3)NCC4)n1", "note": "[Maleate]", "IC50": 8},
      {"smiles": "CN1CC[C@@]23CCCC[C@@H]2[C@@H]1Cc1ccc(Oc2ccccc2)cc13", "note": "[Oxalate]", "IC50": 6}
    ]}
  ]
}
